Experiments:
SW480 [1] = test: cells; conditions: Homo sapiens, SW480, 48 h
Description: Cytotoxicity against human SW480 cells after 48 hrs by MTT assay

MDA-MB-231 = test: cells; conditions: Homo sapiens, MDA-MB-231, 48 h
Description: Cytotoxicity against human MDA-MB-231 cells after 48 hrs by MTT assay

SGC-7901 = test: cells; conditions: Homo sapiens, SGC-7901, 48 h
Description: Cytotoxicity against human SGC7901 cells after 48 hrs by MTT assay

cells = conditions: Homo sapiens, QGY7701, 48 h
Description: Cytotoxicity against human QGY7701 cells after 48 hrs by MTT assay

A549 [2] = test: cells; conditions: Homo sapiens, A549, 48 h
Description: Cytotoxicity against human A549 cells after 48 hrs by MTT assay

HeLa [3] = test: cells; conditions: Homo sapiens, 48 h
Description: Cytotoxicity against human HeLa cells after 48 hrs by MTT assay

physchem = conditions: octanol/water
Description: Lipophilicity, log P of the compound

SW480 [4] = test: Ratio of 5-fluorouracil IC50 to compound IC50 for human SW480 cells after 48 hrs by MTT assay; type: functional
HeLa [5] = test: Ratio of 5-fluorouracil IC50 to compound IC50 for human HeLa cells after 48 hrs by MTT assay; type: functional
A549 [6] = test: Ratio of 5-fluorouracil IC50 to compound IC50 for human A549 cells after 48 hrs by MTT assay; type: functional

Compound | IC50 (SW480 [1]) [µM] | IC50 (MDA-MB-231) [µM] | IC50 (SGC-7901) [µM] | IC50 (cells) [µM] | IC50 (A549 [2]) [µM] | IC50 (HeLa [3]) [µM] | logP (physchem) | Ratio IC50 (SW480 [4]) | Ratio IC50 (HeLa [5]) | Ratio IC50 (A549 [6])
COc1ccc(C(=O)c2ccc(=O)n(-c3ccccc3C)c2)c(OCc2cn(Cc3ccc(Cl)cc3Cl)nn2)c1 | 2.22 | 1.19 | 0.41 | 6.43 | 2.56 | 3.51 | 4.23 |  |  | 
COc1ccc(C(=O)c2ccc(=O)n(-c3ccccc3C)c2)c(OCc2cn(Cc3cccc(Cl)c3)nn2)c1 | 1.37 | 0.38 | > 30 | > 30 | 1.53 | 3.71 | 4.05 |  |  | 
COc1ccc(C(=O)c2ccc(=O)n(-c3ccccc3C)c2)c(OCc2cn(Cc3ccc(Cl)cc3)nn2)c1 | 0.21 | 0.32 | 1.1 | > 30 | 0.86 | 0.54 | 4.05 | 74.8 | 30.6 | 6.5
COc1ccc(C(=O)c2ccc(=O)n(-c3ccccc3C)c2)c(OCc2cn(Cc3ccccc3F)nn2)c1 | 3.28 | 1.14 | > 30 | > 30 | 3.96 | 4.83 | 3.59 |  |  | 
COc1ccc(C(=O)c2ccc(=O)n(-c3ccccc3C)c2)c(OCc2cn(Cc3cccc(F)c3)nn2)c1 | 2.23 | 1.24 | > 30 | > 30 | 3.06 | 5.75 | 3.59 |  |  | 
COc1ccc(C(=O)c2ccc(=O)n(-c3ccccc3C)c2)c(OCc2cn(Cc3ccc(F)cc3)nn2)c1 | 2.37 | 1.46 | 0.19 | 5.44 | 0.48 | 8.48 | 3.59 |  |  | 
COc1ccc(C(=O)c2ccc(=O)n(-c3ccccc3C)c2)c(OCc2cn(Cc3ccccc3C)nn2)c1 | 3.07 | 1.34 | > 30 | 4.63 | 3.21 | 4.86 | 4.1 |  |  | 
COc1ccc(C(=O)c2ccc(=O)n(-c3ccccc3C)c2)c(OCc2cn(Cc3cccc(C)c3)nn2)c1 | 2.45 | 0.21 | > 30 | 6.38 | 3.25 | 3.27 | 4.1 |  |  | 
COc1ccc(C(=O)c2ccc(=O)n(-c3ccccc3C)c2)c(OCc2cn(Cc3ccc(C)cc3)nn2)c1 | 0.48 | 0.49 | 5.48 | > 30 | 0.61 | 0.38 | 4.1 |  |  | 
COc1ccc(Cn2cc(COc3cc(OC)ccc3C(=O)c3ccc(=O)n(-c4ccccc4C)c3)nn2)cc1 | > 30 | 0.59 | 1.28 | > 30 | 1.54 | 0.99 | 3.79 |  |  | 
COc1ccc(C(=O)C2=CC(c3ccccc3C)C(=O)C=C2)c(OCc2cn(Cc3ccc(C(C)(C)C)cc3)nn2)c1 (stereo unspecified) | 0.11 | 3.35 | 3.52 | 3.39 | 1.73 | 0.34 |  | 142.7 | 48.5 | 
COc1ccc(C(=O)c2ccc(=O)n(-c3ccccc3C)c2)c(OC(=O)c2ccc(C)cc2)c1 | 2.31 | 0.54 | 3.96 | > 30 | 3.24 | 3.27 | 4.32 |  |  | 
CCCCC(CC)C(=O)Oc1cc(OC)ccc1C(=O)c1ccc(=O)n(-c2ccccc2C)c1 (stereo unspecified) | 3.35 | 0.37 | 1.48 | > 30 | 2.95 | 2.28 | 5.04 |  |  | 
COc1ccc(C(=O)c2ccc(=O)n(-c3ccccc3C)c2)c(OC(=O)c2ccc(Cl)cc2)c1 | 1.33 | 1.84 | 5.79 | > 30 | 5.23 | 1.56 | 4.27 |  |  | 
COc1ccc(C(=O)c2ccc(=O)n(-c3ccccc3C)c2)c(OC(=O)c2ccc(F)cc2)c1 | 2.78 | 2.35 | 3.62 | 9.64 | 3.68 | 6.86 | 3.81 |  |  | 
COc1ccc(C(=O)c2ccc(=O)n(-c3ccccc3C)c2)c(OC(C)=O)c1 | > 30 | > 30 | 6.21 | > 30 | > 30 | > 30 | 2.7 |  |  | 
COc1ccc(C(=O)c2ccc(=O)n(-c3ccccc3C)c2)c(OC(=O)c2ccccc2)c1 | 3.12 | 1.18 | 1.42 | > 30 | 4.47 | 7.29 | 4.09 |  |  | 

Compound | IC50 (SW480 [1]) [µM] | IC50 (MDA-MB-231) [µM] | IC50 (SGC-7901) [µM] | IC50 (cells) [µM] | IC50 (A549 [2]) [µM] | IC50 (HeLa [3]) [µM] | logP (physchem) | Ratio IC50 (SW480 [4]) | Ratio IC50 (HeLa [5]) | Ratio IC50 (A549 [6])
COc1ccc(C(=O)c2ccc(=O)n(-c3ccccc3C)c2)c(OC(=O)Cc2ccc(Cl)cc2)c1 | 0.58 | 2.44 | 3.48 | 5.68 | 0.49 | 0.58 | 4.4 |  |  | 
COc1ccc(C(=O)c2ccc(=O)n(-c3ccccc3C)c2)c(OC(=O)Cc2ccccc2Cl)c1 | 1.17 | 2.97 | 1.45 | 6.05 | 1.94 | 0.87 | 4.4 |  |  | 
COc1ccc(C(=O)c2ccc(=O)n(-c3ccccc3C)c2)c(OC(=O)c2cc([N+](=O)[O-])cc([N+](=O)[O-])c2)c1 | 2.75 | 3.28 | 2.44 | > 30 | 3.89 | 5.33 | 3.88 |  |  | 
CCCOC(=O)Oc1cc(OC)ccc1C(=O)c1ccc(=O)n(-c2ccccc2C)c1 | 5.97 | 2.11 | 4.18 | > 30 | 6.13 | 7.03 | 3.31 |  |  | 
COc1ccc(C(=O)c2ccc(=O)n(-c3ccccc3C)c2)c(OC(=O)OCc2ccccc2)c1 | 0.52 | 0.75 | 0.69 | 4.33 | 0.59 | 0.46 | 4.23 | 30.2 | 35.9 | 9.5
CCOC(=O)Oc1cc(OC)ccc1C(=O)c1ccc(=O)n(-c2ccccc2C)c1 | 4.56 | > 30 | 3.35 | > 30 | 5.83 | 7.44 | 2.95 |  |  | 
C#CCOc1cc(OC)ccc1C(=O)c1ccc(=O)n(-c2ccccc2C)c1 | 5.33 | > 30 | 6.94 | 9.08 | 7.59 | 7.82 |  |  |  | 
COc1ccc(C(=O)c2ccc(=O)n(-c3ccccc3C)c2)c(OCc2cn(Cc3ccccc3)nn2)c1 | 2.51 | > 30 | 1.25 | > 30 | 3.64 | 4.23 | 3.88 |  |  | 
COc1ccc(C(=O)c2ccc(=O)n(-c3ccccc3C)c2)c(OCc2cn(Cc3ccccc3Br)nn2)c1 | 3.62 | > 30 | 1.23 | > 30 | 5.35 | 5.22 | 4.05 |  |  | 
COc1ccc(C(=O)c2ccc(=O)n(-c3ccccc3C)c2)c(OCc2cn(Cc3cccc(Br)c3)nn2)c1 | 2.32 | > 30 | 5.68 | > 30 | 4.46 | 4.52 | 4.05 |  |  | 
COc1ccc(C(=O)c2ccc(=O)n(-c3ccccc3C)c2)c(OCc2cn(Cc3ccc(Br)cc3)nn2)c1 | > 30 | 2.47 | 2.29 | 4.99 | 5.45 | 4.25 | 4.23 |  |  | 
COc1ccc(C(=O)c2ccc(=O)n(-c3ccccc3C)c2)c(OCc2cn(Cc3ccccc3C#N)nn2)c1 | > 30 | > 30 | > 30 | > 30 | 8.32 | 8.05 | 3.6 |  |  | 
COc1ccc(C(=O)c2ccc(=O)n(-c3ccccc3C)c2)c(OCc2cn(Cc3ccc(C#N)cc3)nn2)c1 | > 30 | 0.43 | > 30 | 2.87 | 4.31 | 0.89 | 3.6 |  |  | 
COc1ccc(C(=O)c2ccc(=O)n(-c3ccccc3C)c2)c(OCc2cn(Cc3cccc(O[N+](=O)[O-])c3)nn2)c1 | 4.42 | 1.39 | 0.55 | 3.01 | 3.61 | 3.12 | 3.77 |  |  | 
COc1ccc(C(=O)c2ccc(=O)n(-c3ccccc3C)c2)c(OCc2cn(Cc3ccccc3Cl)nn2)c1 | 0.39 | 0.38 | > 30 | 4.72 | 0.69 | 1.7 | 4.05 |  |  | 
O=c1[nH]cc(F)c(=O)[nH]1 [FLUOROURACIL] |  |  |  |  |  | 16.5 |  |  |  | 
